Results reported in US4939163A, “Anticonvulsant agents” (Eli Lilly and Company, priority 1989, dated 1990).

tested on: tonic extensor seizures elicited by maximal electroshock; assay: electroshock induced convulsion inhibition assay (E.S.); type: in vivo, Cox standard strain albino male mice; conditions: mouse, oral dose (gavage), 0.1 second 50 milliampere corneal electroshock, inhibition of extensor tonic convulsions, at time of optimal response
Protocol: In the electroshock induced convulsion inhibition assay (E.S.), the compound to be tested was suspended in acacia and administered by gavage to each of ten Cox standard strain albino male mice (18-24 g) at the dose level being investigated. […] The animals were examined and evaluated immediately after the electroshock for the occurrence of clonic, flexor tonic, or extensor tonic convulsions, or death and the ED50 was determined for each compound as the dose which inhibited the occurrence of extensor tonic convulsions in one half of the animals immediately after the electroshock. For comparison, 18 milliamperes was usually sufficient to produce extensor tonic convulsions in about half of the control animals; at 50 milliamperes, almost all control animals (receiving vehicle only) died. The test results summarized in Table I are reported as the ED50 values at the time interval found to provide an optimal response after dosing.

Row | SMILES | ED50 [mg/kg]
1 | Cc1cccc(C)c1NC(=O)c1ccc(C(F)(F)F)cc1 [Example 1, N-(2,6-dimethylphenyl)-4-(trifluoromethyl)benzamide] | ~225
2 | Cc1cccc(C)c1NC(=O)c1ccc(C#N)cc1 [Example 2, 4-Cyano-N-(2,6-dimethylphenyl)benzamide] | 13.2
3 | Cc1ccc(C(=O)Nc2c(C)cccc2C)cc1 [Example 3, N-(2,6-dimethylphenyl)-4-methylbenzamide] | ~250
4 | COc1ccc(C(=O)Nc2c(C)cccc2C)cc1 [Example 4, N-(2,6-dimethylphenyl)-4-methoxybenzamide] | 15
5 | CSc1ccc(C(=O)Nc2c(C)cccc2C)cc1 [Example 5, N-(2 6-dimethylphenyl)-4-(methylthio)benzamide] | ~75
6 | Cc1cccc(C)c1NC(=O)c1ccc(N(C)C)cc1 [Example 6, 4-(Dimethylamino)-N-(2,6-dimethylphenyl)benzamide] | 3.65
7 | CCNc1ccc(C(=O)Nc2c(C)cccc2C)cc1 [Example 7, N-(2,6-dimethylphenyl)-4-(ethylamino)benzamide] | 2.45
8 | CNc1ccc(C(=O)Nc2c(C)cccc2C)cc1 [Example 8, N-(2,6-dimethylphenyl)-4-(methylamino)benzamide] | 2
9 | CCCN(C)c1ccc(C(=O)Nc2c(C)cccc2C)cc1 [Example 9, N-(2,6-dimethylphenyl)-4-(methylpropylamino)benzamide] | 4.6
10 | Cc1cccc(C)c1NC(=O)c1ccc(-n2ccnc2)cc1.Cl [Example 10, N-(2,6-dimethylphenyl)-4-(1H-imidazol-1-yl)benzamide hydrochloride] | ~50
11 | Cc1cccc(C)c1NC(=O)c1ccc(CN)cc1.Cl [Example 11, 4-(Aminomethyl)-N-(2,6-dimethylphenyl)benzamide hydrochloride] | 38
12 | Cc1cccc(C)c1NC(=O)c1ccc(C(N)=O)cc1 [Example 12, N-(2,6-Dimethylphenyl)-1,4-benzenedicarboxamide] | ~75
13 | Cc1cccc(C)c1NC(=O)c1ccc([S+](C)[O-])cc1 (stereo not shown) [Example 13, N-(2,6-dimethylphenyl)-4-(methylsulfinyl)benzamide] | 13
14 | Cc1cccc(C)c1NC(=O)c1ccc(S(C)(=O)=O)cc1 [Example 14, N-(2,6-dimethylphenyl)-4-(methylsulfonyl)benzamide] | 14
15 | Cc1cccc(C)c1NC(=O)c1ccc(O)cc1 [Example 15, N-(2,6-dimethylphenyl)-4-hydroxybenzamide] | 11.2

tested on: seizures in man; assay: not given; conditions: Gilman, Goodman, and Gilman, 6th Ed., p. 455; cited from earlier work

Row | SMILES | plasma level at which seizures are controlled [µg/mL]
16 | O=C1NC(=O)C(c2ccccc2)(c2ccccc2)N1 [phenytoin] | ≥ 10
